Measured values from patent US20160128953A1, “TRANS-CLOMIPHENE AND ITS ANALOGUES AS AGENTS THAT INCREASE BONE MINERAL DENSITY” (REPROS THERAPEUTICS INC., priority 2013, published 2016).
Marks after values point to notes of the source that are not given here.

Columns and labels:
[1] = tested on: human males with secondary hypogonadism; experiment: Serum hormone (DHT, E2) and SHBG levels by immunoassay in treated men; type: in vivo; conditions: for DHT / E2 / SHBG: serum
Procedure: (§1) The effect of the isolated trans-clomiphene isomer on the serum level of biomarkers of bone resorption was assessed in human males with secondary hypogonadism.
Adult male subjects with a morning total testosterone blood level of <300 ng/dl and a serum LH of <15 IU/ml were administered either trans-clomiphene (12 mg/day or 25 mg/day via oral capsule) or a topical testosterone gel (Testim®, 50 mg applied daily) over a three month period. Quantitative determination of baseline serum (circulating) estrogen (E2), dihydrotestosterone (DHT), sex hormone binding globulin (SHBG), P1NP-1 and CTX measurements were made in the subjects by immunoassay. Treatment with either trans-clomiphene (12.5 mg or 25 mg) or Testim® was then initiated. […]

[2] = tested on: human males with secondary hypogonadism; experiment: Serum P1NP-1 (biomarker of bone formation) by immunoassay; type: in vivo
Procedure: as §1
(§2) Adult male subjects with a morning total testosterone blood level of <300 ng/dl and a serum LH of <15 IU/ml were administered either trans-clomiphene ([…] or 25 mg/day via oral capsule) or a topical testosterone gel (Testim®, 50 mg applied daily) over a three month period. Quantitative determination of baseline serum (circulating) estrogen (E2), dihydrotestosterone (DHT), sex hormone binding globulin (SHBG), P1NP-1 and CTX measurements were made in the subjects by immunoassay. Treatment with either trans-clomiphene (12.5 mg or 25 mg) or Testim® was then initiated. Follow-up measurements were taken at 3 weeks post initial dose, 6 months post initial dose and one month after cessation of treatment. The results are presented below at Table 1:
(§3) The effects of trans-clomiphene and Testim® on the level of serum biomarkers of bone formation (P1NP) and bone resorption (CTX) are illustrated at FIGS. 1 and 2. […] The lower levels of P1NP-1 at both trans-clomiphene doses are well within the normal range (15-80 μg/L). A decrease in CTX levels was also observed at both trans-clomiphene dosages; however, the decrease was much stronger at the 25 mg dose. […]

[3] = tested on: human males with secondary hypogonadism; experiment: Serum CTX (biomarker of bone resorption) by immunoassay; type: in vivo
Procedure: as §1, §2, §3

[4] = tested on: hypogonadal males; experiment: Total hip bone mineral density (BMD) by DEXA scan; type: in vivo, human; conditions: 6 months daily trans-clomiphene (12.5 mg, or up-titrated to 25 mg/day); 15 hypogonadal males; FIG. 3
Procedure: The effect of trans-clomiphene on total hip bone mineral density (BMD) was assessed by dual-energy x-ray absorptiometry (DEXA) scans in 15 hypogonadal males (morning testosterone less than 300 ng/dL) with body mass index (BMI) ranging between 25 and 42 and no evidence of bone disease (including ostepenia) prior to treatment. DEXA scans were performed prior to treatment with trans-clomiphene to determine baseline measurements and after 6 months of daily administration of trans-clomiphene. Four of the 15 subjects received 12.5 mg trans-clomiphene administered daily throughout the 6 month period. Eleven of the 15 subjects began at the 12.5 mg/day dose but were later up-titrated to 25 mg/day. Total hip BMD was also assessed in 25 placebo (control) subjects at the same time points. BMD measurements at the 6 month time point in both treated and control subjects were compared to baseline measurements.

[5] = 12.5 mg Androxal daily oral, 3 months
[6] = 12.5 mg Androxal daily oral, 6 weeks
[7] = 12.5 mg Androxal daily oral, Baseline (before TxT)
[8] = 12.5 mg Androxal daily oral, Post TxT (one month after cessation)
[9] = 25 mg Androxal daily oral, 3 months
[10] = 25 mg Androxal daily oral, 6 weeks
[11] = 25 mg Androxal daily oral, Baseline (before TxT)
[12] = 25 mg Androxal daily oral, Post TxT (one month after cessation)

CCN(CC)CCOc1ccc(/C(=C(/Cl)c2ccccc2)c2ccccc2)cc1 [Androxal, trans-clomiphene]
serum estrogen levels after cessation of treatment compared with baseline ([1]; after cessation of trans-clomiphene treatment): remained elevated | change in serum estradiol 17β (E2) ([1]; daily administration of trans-clomiphene for 6 weeks and 3 months): significant increase | DHT [1, 5]: 20.4^ ng/DL | E2 [1, 5]: 56.7*¶ pg/mL | SHBG [1, 5]: 29.3 nmol/L | DHT [1, 6]: 22.7*^ ng/DL | E2 [1, 6]: 52.1*¶ pg/mL | SHBG [1, 6]: 28.6 nmol/L | DHT [1, 7]: 15 ng/dL | E2 [1, 7]: 20.8 pg/mL | SHBG [1, 7]: 24.7 nmol/L | DHT [1, 8]: 13.7 ng/dL | E2 [1, 8]: 39.1* pg/mL | SHBG [1, 8]: 24.9 nmol/L | DHT [1, 9]: 23.2*^ ng/DL | E2 [1, 9]: 46.3*¶ pg/mL | SHBG [1, 9]: 29.5 nmol/L | DHT [1, 10]: 22.2*^ ng/DL | E2 [1, 10]: 48.3*¶ pg/mL | SHBG [1, 10]: 32 nmol/L | DHT [1, 11]: 15.3 ng/dL | E2 [1, 11]: 24.7 pg/mL | SHBG [1, 11]: 26.4 nmol/L | DHT [1, 12]: 15.8 ng/dL | E2 [1, 12]: 40.2* pg/mL | SHBG [1, 12]: 28.7 nmol/L | change in serum P1NP-1 levels, 25 mg dose compared with 12.5 mg dose ([2]; 25 mg trans-clomiphene daily, dose dependency): more robust decrease | change in serum P1NP-1 levels ([2]; either dose of trans-clomiphene (12.5 mg or 25 mg daily), FIG. 1): decrease | decrease in serum CTX levels, 25 mg dose compared with 12.5 mg dose ([3]; 25 mg trans-clomiphene daily): much stronger | change in serum CTX levels ([3]; both trans-clomiphene dosages (12.5 mg and 25 mg daily), FIG. 2): decrease | increase in total hip BMD versus baseline [4]: about 1.23%
